This passage reports Selectivity and Ki results from ChEMBL document CHEMBL1136776, “Aromatic reduced amide bond peptidomimetics as selective inhibitors of neuronal nitric oxide synthase” (J Med Chem, 2003).

Square brackets hold non-standard residues; d marks the D form. Peptide text beside a SMILES is read from it. dArg(NO2) = N=C(NCCC[C@@H](N)C(=O)O)N[N+](=O)[O-]

Test [1] can be described thus: Selectivity ratio of Ki value of eNOS to nNOS.
The nature of test [2]: Selectivity ratio of Ki value of iNOS to nNOS.
A further test addresses Nitric oxide synthase 1 (Rattus norvegicus, UniProt P29476).
The target in the next test is T1, Nitric oxide synthase 3 (Bos taurus, UniProt P29473).
T1 sequence (P29473 whole entry): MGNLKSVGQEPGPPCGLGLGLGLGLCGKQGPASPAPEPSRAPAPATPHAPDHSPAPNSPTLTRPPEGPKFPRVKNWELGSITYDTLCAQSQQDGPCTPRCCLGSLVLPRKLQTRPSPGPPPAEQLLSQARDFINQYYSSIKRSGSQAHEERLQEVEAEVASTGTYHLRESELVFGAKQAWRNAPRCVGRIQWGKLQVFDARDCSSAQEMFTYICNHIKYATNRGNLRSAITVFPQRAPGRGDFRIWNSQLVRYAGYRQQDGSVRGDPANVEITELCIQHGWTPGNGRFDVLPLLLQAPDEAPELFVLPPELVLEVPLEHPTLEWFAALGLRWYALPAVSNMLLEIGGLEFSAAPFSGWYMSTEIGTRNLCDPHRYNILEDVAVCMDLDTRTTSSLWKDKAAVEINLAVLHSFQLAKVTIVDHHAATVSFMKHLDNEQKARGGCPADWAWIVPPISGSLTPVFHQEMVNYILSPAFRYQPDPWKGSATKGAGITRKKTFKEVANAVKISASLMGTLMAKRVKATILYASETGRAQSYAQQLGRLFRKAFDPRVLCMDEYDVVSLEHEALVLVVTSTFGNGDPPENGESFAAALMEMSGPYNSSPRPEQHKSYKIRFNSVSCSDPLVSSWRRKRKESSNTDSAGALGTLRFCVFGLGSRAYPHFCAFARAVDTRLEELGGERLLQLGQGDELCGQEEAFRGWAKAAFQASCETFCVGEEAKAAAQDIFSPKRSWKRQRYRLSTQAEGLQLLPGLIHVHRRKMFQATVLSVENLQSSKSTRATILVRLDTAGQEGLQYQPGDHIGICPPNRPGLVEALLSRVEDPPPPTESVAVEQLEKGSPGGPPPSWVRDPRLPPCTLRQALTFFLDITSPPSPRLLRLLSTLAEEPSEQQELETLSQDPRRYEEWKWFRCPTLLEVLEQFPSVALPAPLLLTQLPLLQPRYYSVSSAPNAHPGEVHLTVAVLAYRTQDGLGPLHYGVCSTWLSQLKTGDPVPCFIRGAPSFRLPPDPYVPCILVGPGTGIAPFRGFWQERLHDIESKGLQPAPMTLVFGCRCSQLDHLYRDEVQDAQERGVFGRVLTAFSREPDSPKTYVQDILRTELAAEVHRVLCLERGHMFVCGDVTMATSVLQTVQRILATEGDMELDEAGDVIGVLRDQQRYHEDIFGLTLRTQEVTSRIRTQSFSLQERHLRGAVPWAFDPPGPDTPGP

Nitric oxide synthase 1, sequence (P29476 whole entry): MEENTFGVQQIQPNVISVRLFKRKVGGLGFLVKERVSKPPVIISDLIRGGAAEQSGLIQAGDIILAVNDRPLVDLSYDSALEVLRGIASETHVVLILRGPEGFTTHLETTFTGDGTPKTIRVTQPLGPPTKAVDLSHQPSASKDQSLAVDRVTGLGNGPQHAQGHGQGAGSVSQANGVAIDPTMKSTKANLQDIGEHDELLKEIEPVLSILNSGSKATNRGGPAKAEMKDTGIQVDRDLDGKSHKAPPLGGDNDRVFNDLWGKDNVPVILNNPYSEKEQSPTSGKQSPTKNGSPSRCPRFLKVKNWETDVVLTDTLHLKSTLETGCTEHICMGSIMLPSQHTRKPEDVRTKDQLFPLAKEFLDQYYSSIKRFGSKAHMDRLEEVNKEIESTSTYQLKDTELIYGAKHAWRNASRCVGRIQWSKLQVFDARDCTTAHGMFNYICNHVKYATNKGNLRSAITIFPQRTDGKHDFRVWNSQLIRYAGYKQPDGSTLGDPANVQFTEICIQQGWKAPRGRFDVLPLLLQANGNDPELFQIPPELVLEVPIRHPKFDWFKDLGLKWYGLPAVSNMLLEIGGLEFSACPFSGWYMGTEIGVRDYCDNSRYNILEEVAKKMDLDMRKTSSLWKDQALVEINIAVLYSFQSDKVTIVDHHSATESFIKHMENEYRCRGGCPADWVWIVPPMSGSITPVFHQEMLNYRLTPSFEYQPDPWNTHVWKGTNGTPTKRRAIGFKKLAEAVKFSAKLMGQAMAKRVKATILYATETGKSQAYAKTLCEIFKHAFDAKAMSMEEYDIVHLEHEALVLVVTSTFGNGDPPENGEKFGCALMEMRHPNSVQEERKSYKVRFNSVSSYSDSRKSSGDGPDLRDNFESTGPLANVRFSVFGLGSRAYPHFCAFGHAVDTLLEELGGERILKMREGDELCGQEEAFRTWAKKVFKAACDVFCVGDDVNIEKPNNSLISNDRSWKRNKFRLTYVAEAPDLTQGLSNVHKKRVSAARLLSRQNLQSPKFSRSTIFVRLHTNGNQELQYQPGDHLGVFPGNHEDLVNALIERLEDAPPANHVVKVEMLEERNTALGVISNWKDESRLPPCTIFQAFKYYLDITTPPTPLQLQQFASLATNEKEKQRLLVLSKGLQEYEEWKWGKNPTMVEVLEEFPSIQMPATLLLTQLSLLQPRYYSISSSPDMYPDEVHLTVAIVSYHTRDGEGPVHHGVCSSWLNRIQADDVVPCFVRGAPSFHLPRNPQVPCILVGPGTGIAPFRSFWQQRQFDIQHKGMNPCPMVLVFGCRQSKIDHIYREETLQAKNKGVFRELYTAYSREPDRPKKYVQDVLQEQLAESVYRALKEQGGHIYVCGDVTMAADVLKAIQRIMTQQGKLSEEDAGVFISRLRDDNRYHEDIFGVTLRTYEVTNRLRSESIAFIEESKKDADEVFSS
Description for Nitric oxide synthase 1: Inhibitory activity against Neuronal Nitric Oxide Synthase (nNOS)
Description for Nitric oxide synthase 3: Inhibitory activity against endothelial nitric oxide synthase (eNOS)

Regarding `N/C(=N\CCC[C@H](N)CNCCc1ccccc1N)N[N+](=O)[O-]`, the Selectivity was 22.1 in test [1] and 135 in test [2].

For the molecule `NCCCC[C@@H](N)C(=O)N[C@H](CCC/N=C(/N)N[N+](=O)[O-])C(N)=O` (H-[dK]-[dArg(NO2)]-NH2), the Ki at Nitric oxide synthase 1 was determined as 0.89 µM.

For the molecule `NCc1ccccc1NC[C@@H](N)CCC/N=C(\N)N[N+](=O)[O-]`, the figures for the Selectivity in test [1] and in test [2] were 7.17 and 5.28, respectively.

With `N/C(=N\CCC[C@H](N)CNCCc1cccc(N)c1)N[N+](=O)[O-]`, the Selectivity in test [1] turned out to be 35; in test [2] it was 122.

Regarding `N/C(=N\CCC[C@H](N)CNCCc1ccc(N)cc1)N[N+](=O)[O-]`, the Selectivity in test [1] amounted to 230; in test [2], 458.

With `N/C(=N\CCC[C@H](N)CNCc1cccnc1)N[N+](=O)[O-]`, the Selectivity was 951 in test [1] and 256 in test [2].

On to `N/C(=N\CCC[C@H](N)CNc1ccc(N)cc1)N[N+](=O)[O-]`, for which the Selectivity in test [1] was 51; in test [2], 149.

As for `N=C(NCCC[C@H](N)CNCCc1ccncc1)N[N+](=O)[O-]`, at Nitric oxide synthase 3, the affinity corresponds to a Ki of 193 µM.

As to `COC(=O)[C@@H](CCCNC(=N)N[N+](=O)[O-])NC(=O)[C@H](N)Cc1ccccc1` (H-[dF]-[dArg(NO2)]-OMe), the results for the Selectivity in test [1] and in test [2] were 2.5 and 1800, respectively. For the same molecule, the Ki at Nitric oxide synthase 1 was 2 µM.

`NCc1ccc(NC[C@@H](N)CCC/N=C(\N)N[N+](=O)[O-])cc1`: the Selectivity amounted to 299 in test [1] and 245 in test [2].

As for `N/C(=N\CCC[C@H](N)CNc1cccc(N)c1)N[N+](=O)[O-]`, the results for the Selectivity in test [1] and in test [2] were 36 and 127, respectively.

Take `N=C(NCCC[C@H](N)CNCCc1ccccn1)N[N+](=O)[O-]`: at Nitric oxide synthase 3, the Ki is 123 µM.
